Laboratory results: US11266715B2, “C3A receptor agonists for use against ischemic brain injury, stroke, traumatic brain injury, spinal cord injury and neurodegenerative disorders” (priority 2016, dated 2022)

Experiments:
[1] = tested on: mice subjected to neonatal HI injury; experiment: Object recognition test after neonatal HI injury, 3 days intranasal treatment; type: in vivo, mouse
Experimental: In the short-term study (3 days of intranasal treatment), 3 groups of WT mice were used; animals subjected to neonatal HI injury and treated with either C3a (HI-C3a, n=18) or PBS (HI-PBS, n=18) and sham-operated animals treated with PBS (SHAM-PBS, n=19). These mice were tested in an open field and object recognition test (ORT) at P50-P54 and brains were collected at P55 (FIG. 8A).
Neonatal HI injury was induced on postnatal day 9 (P9), as previously described with modifications for mice (Hedtjärn et al., 2002; Rice et al., 1981; Sheldon et al., 1998). Mice were anesthetized with 3.5% isoflurane (Baxter Medical, Kista, Sweden) for induction and 1.5% thereafter, in 1:1 oxygen and nitrous oxide. The left common carotid artery was dissected and permanently ligated with a prolene suture (6.0). The incision was closed and infiltrated with lidocaine (Xylocain®, Astra Zeneca, Gothenburg, Sweden). Mice were returned to the dam for 1 hour and then placed in a chamber with humidified air at 36° C. for 10 min, then exposed to humidified 10% oxygen in nitrogen for 30 min at 36° C., and then kept in humidified air at 36° C. for 10 min before being returned to the dam. Sham animals were subjected to an incision in the neck on P9. These pups were also removed from the dam for the time duration that injured animals stayed in the chamber, but remained instead in a warming tray at 36° C. under normal oxygen conditions. At postnatal day 21 (P21) mice were weaned and group housed with same sex littermates.
Purified human C3a (Complement Technology Inc., Tyler, Tex., USA) was diluted in sterile phosphate buffered saline (PBS) to a concentration of 200 nM, and a total of 8 μl i.e. […] (4 μl/nostril; corresponding to ca. 2.56 μg/kg body weight) of peptide solution or PBS was given intranasally to awake and hand-restrained mice held in a supine position. Solutions were administered through a pipette tip, drop-wise in 2 μl-portions divided by 1 min intervals to allow for absorption. […] C3a or PBS was given every 24 hours for three (short-term study) or seven (long-term study) days starting 1 h after HI induction, i.e. between P9 and P11 or P9 and P15, respectively. Mice in each litter were randomly assigned to C3a or PBS treatment. Sham animals received PBS. The investigators carrying out behavioural studies and analysing data were blinded to treatment group.
The object recognition test is based on the innate preference of mice to explore a novel object rather than a familiar one. Therefore, animals that remember the familiar object will spend more time exploring the novel object (Leger et al., 2013). From 3 days before starting the test, mice were daily handled for 2 min to minimize the possible stress due the researcher interaction. All experiments were performed at the same time of the day, between 9 am and […], and inside of a plastic box of 50×50×50 cm dimensions where the light intensity was dim and equal in all parts of the apparatus. […] Prior to the familiarization session, during which two identical objects were introduced, mice were habituated to the apparatus for 10 min during 3 consecutive days. Activity on the first habituation day was recorded as an open field test to assess locomotor and exploratory activities. During the familiarization session, two identical 250 ml bottles filled with shredded paper were placed at an equal distance from the arena walls (approximately 5 cm). […]

serum carboxypeptidases = details: systemically administered C3a; cited from earlier work

C3a: Purified human C3a peptide (Complement Technologies), C3a receptor agonist, amino acid sequence SEQ ID NO: 1
time exploring novel vs familiar object, long-term memory (24 h) ([1]; C3a treated mice p<0.05): significantly longer time exploring the novel compared to familiar object
exploratory behavior in the familiarization phase ([1]; intranasal C3a 3 days from 1 h post-HI): not altered
time exploring the novel object, short-term memory (6 h), vs PBS-treated mice post-HI ([1]; p<0.01): spent more time exploring the novel object
total object exploration time, long-term memory (24 h), vs PBS ([1]; p<0.05): longer
total object exploration time, short-term memory (6 h), vs PBS ([1]; p<0.05): longer total object exploration time
stability in serum (serum carboxypeptidases): rapid inactivation by serum carboxypeptidases
